These results are taken from patent US9297813B2, “Targeting metabolic enzymes in human cancer” (Agency for Science, Technology and Research, priority 2010, dated 2016).

Assay [1] deals with T1, GLDC (Homo sapiens, UniProt P23378).
T1 sequence (P23378 36-1020): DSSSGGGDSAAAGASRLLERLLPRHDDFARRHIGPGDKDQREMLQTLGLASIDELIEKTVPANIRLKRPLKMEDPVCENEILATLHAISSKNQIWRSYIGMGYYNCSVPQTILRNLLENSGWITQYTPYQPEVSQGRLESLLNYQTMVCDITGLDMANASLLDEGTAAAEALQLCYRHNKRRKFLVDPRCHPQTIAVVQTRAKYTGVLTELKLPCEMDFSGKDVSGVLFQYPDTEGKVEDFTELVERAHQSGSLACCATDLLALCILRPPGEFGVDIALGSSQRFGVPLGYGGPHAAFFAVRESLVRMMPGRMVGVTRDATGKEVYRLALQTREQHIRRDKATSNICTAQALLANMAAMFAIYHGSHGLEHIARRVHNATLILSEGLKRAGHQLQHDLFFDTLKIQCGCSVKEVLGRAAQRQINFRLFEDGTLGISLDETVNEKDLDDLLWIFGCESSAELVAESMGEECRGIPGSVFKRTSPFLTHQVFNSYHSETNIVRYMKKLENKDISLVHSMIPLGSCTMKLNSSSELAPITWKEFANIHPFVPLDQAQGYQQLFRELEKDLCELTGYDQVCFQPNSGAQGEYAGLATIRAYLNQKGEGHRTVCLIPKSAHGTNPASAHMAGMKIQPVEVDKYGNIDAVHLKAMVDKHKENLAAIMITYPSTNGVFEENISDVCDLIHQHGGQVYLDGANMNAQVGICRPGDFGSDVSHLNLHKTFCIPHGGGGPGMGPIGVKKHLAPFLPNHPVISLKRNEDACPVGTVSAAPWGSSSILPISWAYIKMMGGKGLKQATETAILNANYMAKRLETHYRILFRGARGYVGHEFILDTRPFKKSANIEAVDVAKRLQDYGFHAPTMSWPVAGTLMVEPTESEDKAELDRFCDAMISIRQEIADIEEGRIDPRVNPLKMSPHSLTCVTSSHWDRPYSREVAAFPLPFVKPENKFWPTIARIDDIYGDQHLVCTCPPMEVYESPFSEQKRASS
The conditions noted are these: cited from earlier work.

Assay [2] concerns cytoplasmic and mitochondrial aspartate aminotransferase. The conditions noted are these: cited from earlier work.
Assay [3] addresses T1, GLDC. In words: Victorin: inhibition of GLDC expression, tumour formation and cell proliferation (no method given).
The next assay deals with 3T3 cells. In words: Adherent colony formation with methotrexate, 3T3 cells overexpressing GLDC. In kind it is cell-based, mouse. The settings on record: low doses of methotrexate. As to the method: (§1) (E) Effects of the anti-folate drug methotrexate on colony formation after GLDC overexpression or knockdown. 3T3 and HLF cells overexpressing GLDC were plated at clonal density and exposed to varying concentrations of methotrexate for 8 days. A549 cells with GLDC knockdown were plated in soft agar at clonal density and exposed to varying concentrations of methotrexate for 14 days.
(§2) Adherent colony formation was performed by seeding 200-3000 single cells into 10 cm-culture dish and maintained for 10-14 days in DMEM/10% FBS. Colonies were stained by Wright-Giemsa and those colonies containing more than 50 cells were counted. For methotrexate (Sigma) treatment assay, cells were maintained in growth medium containing serial dilution of methotrexate (0, 0.1, 0.2, 0.5, 1, 2, 5, 10, 20 uM) and fresh medium were changed every 3 days.

The test system of a further assay is HLF cells. In words: Adherent colony formation with methotrexate, HLF cells overexpressing GLDC. Format: cell-based, human. The settings on record: low doses of methotrexate. As for the experimental part:
as §1, §2

Assay [4] has as its system A549 cells. In words: Soft agar colony formation with methotrexate, A549 cells with GLDC knockdown. Format: cell-based, human. The conditions noted are these: methotrexate in combination with GLDC shRNA versus either alone, 14 days.
For assay [5], the system named is A549 cells. In words: Soft agar colony formation, sarcosine rescue after GLDC knockdown. Format: cell-based, human. The conditions noted are these: 10 μM sarcosine. As to the method:
(F) Effects of sarcosine on soft agar colony formation after GLDC knockdown in A549 cells. 1000 cells were seeded in soft agar at clonal density and exposed to 10 μM sarcosine for 14 days.
Soft agar assays were conducted as described previously (Viswanathan et al., 2009). We stained colonies with 1% INT and counted them after 3-4 weeks of growth. For sarcosine rescue experiment, 10 μM of sarcosine (sigma) or PBS were added to top cells layer of agar and growth medium containing sarcosine were changed every 3 days before counting colonies.

For `NOCC(=O)O` [Aminooxyacetate, (Aminooxy) acetate], at GLDC [1], the “GLDC binding and inhibition of GLDC activity” value was “binds to GLDC and inhibits GLDC activity”. For the same compound, the “inhibition of aspartate aminotransferase or glutamate transaminases” value in assay [2] is recorded as “powerful inhibitor”.
Consider `CC(C[C@H](NC(=O)C(O)O)C(=O)N[C@H](C(=O)N[C@@H]1C(=O)N/C(=C/Cl)C(=O)N[C@H](C(=O)O)CC2=C(CC(O)C2=O)O[C@H]1C(C)C)[C@H](O)CCCN)C(Cl)Cl` (some centres unmarked) [Victorin], for which, on GLDC [3], the “inhibition of GLDC expression” value is given as “able to inhibit GLDC expression”; the “tumour formation and cell proliferation” value is “block or reduced tumour formation and cell proliferation”.
With `CN(Cc1cnc2nc(N)nc(N)c2n1)c1ccc(C(=O)N[C@@H](CCC(=O)O)C(=O)O)cc1` [methotrexate], the “GLDC-induced proliferation (colony formation)” value in the assay on 3T3 cells (3T3 cells overexpressing GLDC, 8 days) is listed as “specifically abrogated GLDC-induced proliferation”; in the assay on HLF cells (HLF cells overexpressing GLDC, 8 days) it was “specifically abrogated GLDC-induced proliferation”. Also, the “effect on control cells” value in the assay on 3T3 cells (control 3T3 cells) and in the assay on HLF cells (control HLF cells) was “little effects” throughout. The “killing of transformed A549 cells” value in the assay with A549 cells [4] is recorded as “killed transformed A549 cells much more effectively than either alone”.
With `CNCC(=O)O` [sarcosine, N-methylglycine], the “rescue of proliferation defect upon GLDC knockdown” value with A549 cells [5] (14 days, A549 cells with GLDC retroviral knockdown) is given as “significantly rescue the proliferation defect”. Besides, the “effect on control A549 cells” value with A549 cells [5] (control A549 cells) is listed as “little effect”.
